From the supplement of paper PMC10307832

Assays:
Experiment in all cases: relative viability (nuclei count vs DMSO), 5 days (fraction); higher = more cells survive
[1] = compound: O=C(NCCCNc1nc(Nc2cccc(NC(=O)N3CCCC3)c2)ncc1I)c1cccs1 [BX 795] + CC1(C)CCC(c2ccc(Cl)cc2)=C(CN2CCN(c3ccc(C(=O)NS(=O)(=O)c4ccc(N[C@H](CCN5CCOCC5)CSc5ccccc5)c(S(=O)(=O)C(F)(F)F)c4)cc3)CC2)C1 [Navitoclax] (partner 0.5 µM)
How it was run: (§1)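 Values are medians from duplicate plates. Each reflects relative viability, defined as the nuclei count of treated wells over that of vehicle wells. Lung cancer cell lines in 1536-well plates were pin-tool dosed one day after seeding with one drug alone or with a fixed anchor-drug dose plus five library-drug doses (not always all listed) in √10 steps, then fixed, stained and imaged at 4× after 5 days.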

[2] = compound: O=C(NCCCNc1nc(Nc2cccc(NC(=O)N3CCCC3)c2)ncc1I)c1cccs1 [BX 795] + COc1cc2c(Oc3ccc(NC(=O)C4(C(=O)Nc5ccc(F)cc5)CC4)cc3F)ccnc2cc1OCCCN1CCOCC1 [Foretinib] (partner 0.25 µM)
How it was run: as §1

[3] = compound: O=C(NCCCNc1nc(Nc2cccc(NC(=O)N3CCCC3)c2)ncc1I)c1cccs1 [BX 795] + COc1cccc2cc(-c3nc([C@H]4CC[C@H](C(=O)O)CC4)n4ncnc(N)c34)[nH]c12 [OSI-027] (partner 0.5 µM)
How it was run: as §1

[4] = compound: O=C(NCCCNc1nc(Nc2cccc(NC(=O)N3CCCC3)c2)ncc1I)c1cccs1 [BX 795] + Cc1nc(NC(=O)N2CCC[C@H]2C(N)=O)sc1-c1ccnc(C(C)(C)C(F)(F)F)c1 [Alpelisib] (partner 2 µM)
How it was run: as §1

[5] = compound: O=C(NCCCNc1nc(Nc2cccc(NC(=O)N3CCCC3)c2)ncc1I)c1cccs1 [BX 795] + O=C(c1cc(Cc2n[nH]c(=O)c3ccccc23)ccc1F)N1CCN(C(=O)C2CC2)CC1 [Olaparib] (partner 8 µM)
How it was run: as §1

Cell Line	relative viability ([1]; first compound 0.04 µM)	relative viability ([1]; first compound 0.1265 µM)	relative viability ([1]; first compound 0.4 µM)	relative viability ([1]; first compound 1.265 µM)	relative viability ([2]; first compound 0.04 µM)	relative viability ([2]; first compound 0.1265 µM)	relative viability ([2]; first compound 0.4 µM)	relative viability ([2]; first compound 1.265 µM)	relative viability ([3]; first compound 0.04 µM)	relative viability ([3]; first compound 0.1265 µM)	relative viability ([3]; first compound 0.4 µM)	relative viability ([3]; first compound 1.265 µM)	relative viability ([4]; first compound 0.04 µM)	relative viability ([4]; first compound 0.1265 µM)	relative viability ([4]; first compound 0.4 µM)	relative viability ([4]; first compound 1.265 µM)	relative viability ([5]; first compound 0.04 µM)	relative viability ([5]; first compound 0.1265 µM)	relative viability ([5]; first compound 0.4 µM)	relative viability ([5]; first compound 1.265 µM)
NCI-H1734	0.882	0.945	0.828	0.618	0.836	0.982	0.83	0.456	0.536	0.592	0.555	0.419	0.699	0.658	0.708	0.424	0.612	0.662	0.501	0.514
NCI-H1755	1.07	0.978	1.04	0.671	0.926	0.865	0.894	0.67	0.711	0.74	0.794	0.552	0.929	0.9	0.93	0.63	0.961	0.858	0.956	0.725
NCI-H1793	0.575	0.362	0.39	0.272	0.887	0.663	0.834	0.266	0.34	0.292	0.329	0.241	0.675	0.775	0.647	0.613	0.972	0.856	0.928	0.804
NCI-H1915	0.824	0.782	0.766	0.691	1.07	1.1	1.08	0.995	0.7	0.6	0.663	0.469	1.11	1.08	1.14	0.928	0.297	0.26	0.217	0.242
NCI-H1944	1.14	1.11	1.07	0.953	0.996	0.888	1.06	0.802	0.51	0.459	0.488	0.381	0.959	0.806	0.893	0.754	0.476	0.403	0.542	0.403
NCI-H1975	1.19	1.24	1.16	0.985	0.833	1.11	0.972	0.898	0.83	0.7	0.574	0.424	0.6	0.671	0.626	0.406	0.811	0.961	0.632	0.586
NCI-H1993	0.868	0.857	0.846	0.614	0.804	0.961	0.73	0.665	0.528	0.537	0.531	0.532	0.583	0.655	0.641	0.689	0.847	0.92	1.16	0.92
NCI-H2009	1.23	1.1	1.19	0.853	1.21	1.19	1.16	1.11	0.612	0.595	0.604	0.386	1.14	1.06	1.34	0.836	0.717	0.632	0.575	0.355
NCI-H2023	0.933	1.08	0.36	0.645	0.722	0.912	0.427	0.551	0.272	0.398	0.173	0.182	0.543	0.575	0.45	0.352	0.461	0.494	0.403	0.26
NCI-H2085	1.12	1.17	1.27	1.01	1.05	1.05	0.873	0.809	0.732	0.817	0.73	0.648	1.09	0.98	1.14	0.863	0.827	0.833	0.914	0.72
NCI-H2087	0.901	1	1.25	0.801	1.06	1.13	1.24	0.623	0.793	0.82	0.848	0.502	1.08	1.18	1.29	0.752	0.833	0.761	0.781	0.448
NCI-H2126	0.795	0.826	0.965	0.787	1.31	1.02	1.3	1.03	0.837	0.677	0.818	0.699	0.768	0.763	0.876	0.728	0.982	0.909	1	0.893
